From patent US9023350B2, “Synergistic pharmaceutical composition useful for inhibiting corneal and retinal neovascularization (angiogenesis), and in other organs, in a human being or animals” (Association Civil de Estudios Superiores, priority 2007, dated 2015)

Key:
corneal neovasculization = test: Corneal neovasculization model (NaOH alkali burn of the cornea), neovasculization index; type: in vivo; settings: rabbit, during 35 days of evaluation, single iv dose
Method: After anaesthetizing a Newzealender breed white rabbit of 3 kg. with a midazolam and ketamine hydrochloride with an intramuscular injection, installation of topical proparacaine was performed (Anestalcon, Alcon, Argentina) in the eye and a blepharostat was place on the right eye. During 20 seconds 7 mm diameter dicks of Whatman filter paper were soaked in a 1N NaOH solution. The paper disk was placed on the central part of the cornea with a pincer leaving it there for 2 minutes. Immediately afterwards the injured zone was washed with 15 ml saline physiological solution (CINa, 0.9%) during one minute. The same process was performed on 12 rabbits of the same color, breed and weight.
Formation of neovessels were quantified with a value of 0 to 4 to each quadrant according to the centripetal growth of the longest vessel (in 1 mm increases i.e, 0=0 mm; 1=equal or less than 1 mm; 2=more than 1 and up to 2 mm; 3=more than 2 and up to 3 mm; 4=more than 3 mm). The sum of the four quadrants provided the neovasculization index (INV) for that eye.
24 hs after the lesion was caused the first clinical examination was performed and was then continued every three days. This was carried out using an operator microscope or a surgical magnifying glass and photographs were taken with a digital camera Nikon Coolpix 5700. The INV register was performed on days 9, 15, 21 and 35 on all the animals. […]

[1] = test system: CT26 cells (colon adenocarcinoma); test: Oncological angiogenesis model, subcutaneous CT26 tumors; type: in vivo, Balb/c rats; settings: day 31; single iv dose on day 7: Suramine 20 mg/Kg, Bevacizumab 5 mg/Kg, suramab = Suramine 20 mg/Kg + Bevacizumab 5 mg/Kg
Method: 5×10^5 CT26 cells (colon adenocarcinoma) were inoculated subcutaneously, in the dorsal-lateral region of Balb/c rats. On the 7th day of inoculation 4 groups of animals were formed that received different treatments via iv (in the tail vein).
• a. […] Control group: (n=7) PS 100 μl under slow infusion.
The tumors were measured three times per week. The following formula was used to calculate the tumor volume: […]. The animals having tumors volumes greater or equal to 8000 mm3 were sacrificed.
Survival was considered till day 35 post tumor inoculation.

Cc1ccc(C(=O)Nc2ccc(S(=O)(=O)O)c3cc(S(=O)(=O)O)cc(S(=O)(=O)O)c23)cc1NC(=O)c1cccc(NC(=O)Nc2cccc(C(=O)Nc3cc(C(=O)Nc4ccc(S(=O)(=O)O)c5cc(S(=O)(=O)O)cc(S(=O)(=O)O)c45)ccc3C)c2)c1 [Suramine]
effect on corneal neovasculization (in words) (corneal neovasculization): inhibiting effect on neovasculization | tumor volume compared to the control group (in words) [1]: reduction of tumor volume compared to the control group

Bevacizumab: monoclonal antibody, humanized and recombinant, that binds to VEGF-A
effect on corneal neovasculization (in words) (corneal neovasculization): inhibiting effect on neovasculization | tumor volume compared to the control group (in words) [1]: reduction of tumor volume compared to the control group
